Test results taken from patent US9265268B2, “Method of handling bananas” (priority 2009, dated 2016).

Experiments:
[1] = tested on: bananas; assay: Example US-4: placement into MAP after exposure to 1-MCP; format: in vivo, Musa; conditions: 1000 ppb, Day #8
Text: Bananas were harvested and shipped to Ephrata, Pa. as in Example US-1 above. The bananas were also ripened as in Example US-1, except that the bananas remained in the bags in which they were shipped (poly liners) throughout the ripening process. Some of the poly liners were exposed to 1-MCP (1000 ppb) as in Example US-1 above, while others were not. Immediately after the conclusion of the exposure to 1-MCP, bananas were removed from the poly liners, divided into bunches. Some bunches had approximately of 1.4 kg (3 lb) and were placed into T-bags as described above. Other bunches were approximately 18 kg (40 lb) and were placed into MAP type D-40 as described above, using standard layering technique that interposes layers of the bag in between layers of bananas. Then the bananas were stored and evaluated as in Example US-1. Also, the bananas were eaten, and the firmness of the pulp was evaluated along with the overall quality of the eating experience.

[2] = tested on: bananas; assay: Example US-7a: various number of bananas per bag (appearance); format: in vivo, Musa; parameters: scale not given here; conditions: 1,000 ppb 1-MCP, Day Number 7
Experimental: Bananas were handled and tested as in Example US-1, except that the number of bananas per bag was varied. Concentration of 1-MCP was 1,000 ppb. Also, two different types of MAP bags were used: type M and type D, as described above. Bananas were evaluated on day #7 after treatment with 1-MCP.

Compound: CC1=CC1 [1-MCP, 1-methylcyclopropene]
- Average color stage ([1]; 1-MCP only (T-bag)): 4.71
- Average sugar spot rating ([1]; 1-MCP only (T-bag)): 3
- eating experience ([1]; 1-MCP only (T-bag)): mediocre
- pulp ([1]; 1-MCP only (T-bag)): soft
- Average color stage ([1]; MAP (type D-40) and 1-MCP): 4.42
- Average sugar spot rating ([1]; MAP (type D-40) and 1-MCP): 1
- eating experience ([1]; MAP (type D-40) and 1-MCP): excellent
- pulp ([1]; MAP (type D-40) and 1-MCP): firm
- Color Stage ([2]; MAP type D, 1 bananas per bag): 6.7
- Sugar Spots ([2]; MAP type D, 1 bananas per bag): 0.7
- Color Stage ([2]; MAP type D, 2 bananas per bag): 5.5
- Sugar Spots ([2]; MAP type D, 2 bananas per bag): 1.0
- Color Stage ([2]; MAP type D, 3 bananas per bag): 5.5
- Sugar Spots ([2]; MAP type D, 3 bananas per bag): 0.3
- Color Stage ([2]; MAP type D, 4 bananas per bag): 5.5
- Sugar Spots ([2]; MAP type D, 4 bananas per bag): 0.7
- Color Stage ([2]; MAP type D, 5 bananas per bag): 4.8
- Sugar Spots ([2]; MAP type D, 5 bananas per bag): 1.3
- Color Stage ([2]; MAP type D, 6 bananas per bag): 5.2
- Sugar Spots ([2]; MAP type D, 6 bananas per bag): 0.3
- Color Stage ([2]; MAP type D, 7 bananas per bag): 4.8
- Sugar Spots ([2]; MAP type D, 7 bananas per bag): 0.7
- Color Stage ([2]; MAP type D, 8 bananas per bag): 4.5
- Sugar Spots ([2]; MAP type D, 8 bananas per bag): 0.0
- Color Stage ([2]; MAP type D, 9 bananas per bag): 4.5
- Sugar Spots ([2]; MAP type D, 9 bananas per bag): 0.7
- Color Stage ([2]; MAP type D, 10 bananas per bag): 4.5
- Sugar Spots ([2]; MAP type D, 10 bananas per bag): 0.0
- Color Stage ([2]; MAP type D, 11 bananas per bag): 4.3
- Sugar Spots ([2]; MAP type D, 11 bananas per bag): 0.0
- Color Stage ([2]; MAP type D, 12 bananas per bag): 4.5
- Sugar Spots ([2]; MAP type D, 12 bananas per bag): 0.0
- Color Stage ([2]; MAP type M, 1 bananas per bag): 6.2
- Sugar Spots ([2]; MAP type M, 1 bananas per bag): 2.0
- Color Stage ([2]; MAP type M, 2 bananas per bag): 5.3
- Sugar Spots ([2]; MAP type M, 2 bananas per bag): 1.7
- Color Stage ([2]; MAP type M, 3 bananas per bag): 4.8
- Sugar Spots ([2]; MAP type M, 3 bananas per bag): 2.0
- Color Stage ([2]; MAP type M, 4 bananas per bag): 5.3
- Sugar Spots ([2]; MAP type M, 4 bananas per bag): 1.0
- Color Stage ([2]; MAP type M, 5 bananas per bag): 5.2
- Sugar Spots ([2]; MAP type M, 5 bananas per bag): 1.0
- Color Stage ([2]; MAP type M, 6 bananas per bag): 4.8
- Sugar Spots ([2]; MAP type M, 6 bananas per bag): 1.0
- Color Stage ([2]; MAP type M, 7 bananas per bag): 5.0
- Sugar Spots ([2]; MAP type M, 7 bananas per bag): 0.0
- Color Stage ([2]; MAP type M, 8 bananas per bag): 4.5
- Sugar Spots ([2]; MAP type M, 8 bananas per bag): 1.0
- Color Stage ([2]; MAP type M, 9 bananas per bag): 4.5
- Sugar Spots ([2]; MAP type M, 9 bananas per bag): 0.7
- Color Stage ([2]; MAP type M, 10 bananas per bag): 5.2
- Sugar Spots ([2]; MAP type M, 10 bananas per bag): 1.0
- Color Stage ([2]; MAP type M, 11 bananas per bag): 4.5
- Sugar Spots ([2]; MAP type M, 11 bananas per bag): 0.0
- Color Stage ([2]; MAP type M, 12 bananas per bag): 4.5
- Sugar Spots ([2]; MAP type M, 12 bananas per bag): 0.0
